Test results published in paper PMC4980431, “Ctf4 Is a Hub in the Eukaryotic Replisome that Links Multiple CIP-Box Proteins to the CMG Helicase” (Molecular Cell, 2016).
Where a SMILES comes first, the peptide text is derived from it.

Tests used:
[1] = tested on: Ctf4; assay: Co-purification with Ctf4 from yeast cell extracts; format: cell-based, budding yeast; details: extracts of yeast cells; S phase and G1-phase; immunoblotting
Procedure: Figure 3 Interaction of the Type I CIP-Box Protein Dna2 with Ctf4 Is Important for rDNA Maintenance (A) GAL-DNA2-9MYC CTF4-TAP (YFV22) and GAL-DNA2-9MYC control cells (YFV21) were grown at 30°C in rich medium containing 2% galactose and then treated as in Figure 2D. The Ctf4-TAP was isolated from cell extracts on magnetic beads coupled to IgG. (B) The smallest fragment of Dna2 that interacted with Ctf4 461–927 in the two-hybrid screen (120–456 shown in red) contains a Ctf4-interacting peptide or CIP-box, closely related to those of Sld5 and Pol1 (upper). […] (C) Mutations in the CIP-box of Dna2 abolished the interaction of full-length Dna2 (1–1,522) or Dna2 120–456 to interact with Ctf4 461–927. (D) When soaked into crystals of Ctf4 471–927, the Dna2 CIP-box binds to the helical region of Ctf4, as previously observed for the CIP-boxes of Pol1 and Sld5 ([Simon et al., 2014]). […]
Figure 4 Tof2 and Dpb2 Define a New Class of Type II CIP-Box Proteins that Bind to a Novel Binding Pocket on the Surface of Ctf4 (A) The smallest fragments of Dpb2 and Tof2 that interacted with Ctf4 461–927 in the two-hybrid screen (shown in red) were each found to contain a putative CIP-box with limited homology to the type I CIP-boxes of Sld5, Dna2, and Pol1. […] The indicated proteins were monitored by immunoblotting. […]

[2] = target: T1, Ctf4 471-927 (Ctf4CTD) (Saccharomyces cerevisiae, UniProt Q01454); assay: Fluorescence anisotropy, peptide binding to Ctf4 471-927; design: species or system budding yeast; details: legend of Figure S3C; 50 nM fluorescein-labeled Dna2 peptide, pH 7.2, 25°C; mean of three independent experiments
T1 sequence (Q01454 471-927): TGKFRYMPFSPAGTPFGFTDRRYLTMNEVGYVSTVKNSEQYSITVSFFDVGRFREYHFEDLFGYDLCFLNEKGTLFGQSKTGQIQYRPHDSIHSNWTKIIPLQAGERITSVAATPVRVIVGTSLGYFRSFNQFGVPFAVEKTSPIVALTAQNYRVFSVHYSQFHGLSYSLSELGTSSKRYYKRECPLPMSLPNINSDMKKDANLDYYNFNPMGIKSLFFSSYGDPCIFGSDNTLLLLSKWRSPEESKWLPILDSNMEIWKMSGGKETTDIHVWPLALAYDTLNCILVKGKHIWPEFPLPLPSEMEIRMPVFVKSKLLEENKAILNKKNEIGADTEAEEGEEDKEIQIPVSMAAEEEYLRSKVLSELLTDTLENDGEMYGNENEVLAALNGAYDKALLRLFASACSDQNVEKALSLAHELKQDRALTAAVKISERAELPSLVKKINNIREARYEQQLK
Procedure: The lowest concentration of peptide at which the binding studies could be performed was determined via peptide calibration curves. Fluorescence anisotropy measurements were recorded in a PHERAstar Plus multi-detection plate reader (BMG Labtech) equipped with fluorescence polarization optic module (λex = 485 nm; λem = 520 nm) at 25°C. Each data point is the mean of 200 flashes/well. The voltage gain was set by adjusting the target mP values of fluorescein-labeled peptides relative to that of fluorescein (35 mP). Serial dilutions of Ctf4CTD were made in 20 mM HEPES (pH 7.2), 140 mM KCl, and 5% (w/v) glycerol in the presence of 40 nM (Sld5 and Tof2) or 50 nM (Dna2) fluorescein-labeled peptide. For Dna2 peptide, each data point is the mean of three independent experiments and curve fitting to the experimental data was performed in pro Fit 6.2 (QuantumSoft) using a Levenberg-Marquardt fitting algorithm in combination with a Gaussian error distribution analysis.

[3] = tested on: budding yeast cells (W303 background); assay: Yeast growth in the presence of hydroxyurea; format: cell-based
Procedure: (§1) Yeast growth, two-hybrid analysis, and immunoprecipitation experiments were performed as described in detail previously ([Maculins et al., 2015], [Maric et al., 2014]). A two-hybrid screen against amino acids 461–927 of Ctf4 was performed by the company Hybrigenics.

[4] = tested on: CMG helicase; assay: Co-purification with CMG helicase from yeast cell extracts; format: cell-based, budding yeast; details: extracts of S phase yeast cells; immunoprecipitation, immunoblotting
Procedure: (D) Cultures of ctf4-4E MCM4-9MYC (YFV13) and MCM4-9MYC control cells (YSS75) were synchronized in G1-phase at 30°C and then released into S phase for 20 min. The Mcm4-9MYC was isolated from cell extracts by immunoprecipitation and the associated proteins monitored by immunoblotting. (E) ctf4-4E is synthetic lethal with mrc1Δ. The cells were processed as in Figure 1A, and the photos in the lower images were taken after 20 hr growth at 30°C (the scale bars represent 50 μm). See also Figure S2. TEXT PRINTED IN THE PICTURE: (C) Ctf4-4E (471-927): 162 kDa
as §1

[5] = target: the molecule itself; assay: SEC-MALS; 100 μl at 2 mg/ml on Superdex S200 HR 10/300 in 20 mM HEPES pH 7.2, 160 mM NaCl, 0.5 ml/min

nuclease/helicase Dna2: multi-functional nuclease/helicase Dna2, expressed in yeast cells
co-purification with Ctf4 (in words) [1]: co-purified with Ctf4

CC[C@H](C)[C@H](NC(=O)[C@H](CC(=O)O)NC(=O)[C@H](CC(=O)O)NC(=O)[C@H](CC(C)C)NC(=O)[C@@H](NC(=O)[C@H](CC(=O)O)NC(=O)[C@H](CC(=O)O)NC(=O)[C@@H](NC(=O)[C@H](CC(N)=O)NC(=O)[C@H](CCCNC(=N)N)NC(=O)[C@H](CC(C)C)NC(=O)[C@@H](N)CO)[C@@H](C)CC)[C@@H](C)CC)C(=O)N[C@@H](CCC(=O)O)C(=O)NCC(=O)N[C@@H](CC(=O)O)C(=O)N[C@@H](CC(C)C)C(=O)N[C@H](C(=O)O)[C@@H](C)O [Dna2 peptide (207-223)] (H-SLRNIDDILDDIEGDLT-OH)
Kd [2]: 229 µM

NC(=O)NO [hydroxyurea]
sensitivity to hydroxyurea, ctf4-3E cells (in words) ([3]; ctf4-3E cells compared with ctf4Δ, Figure 5F): do not share the sensitivity of ctf4Δ cells
sensitivity to hydroxyurea, pol1-4A cells (in words) ([3]; pol1-4A cells, in contrast to ctf4Δ, Figure 1B): does not cause sensitivity

B1: Ctf4-I901E: Ctf4 with glutamate mutation of I901 (protein)
chain: MVSVIDKLVFDFGGKTLVSLAPDNNTLCVANKNGLTKILKTNNPEEEPETLDSSKLVSSIKCYSNSHFLMTTMQGDALRYNIDSSQEELLARFALPLRDCCVIHSGKMAVFGGDDLELILLELDDETHKKHAIKIDEQVSQISYNSQMNILAVSMINGKVQIFSLTSTIPNKVHELNDYIVANSYDDTHRDKILSNMMDDIDKDNDNDLSETADPDENNVADPEFCAANRICTRVAWHPKGLHFALPCADDTVKIFSIKGYSLQKTLSTNLSSTKAHFIDLQFDPLRGTYIAAVDLNNKLTVWNWETSEIHYTREFKRKITNIAWKIQADSKTLDLVLGTWSGSIAIVQNLAESVVSNIPDQSVAESSTKHGLFVDSESDLENLEGNDDINKSDKLFSDITQEANAEDVFTQTHDGPSGLSEKRKYNFEDEEDFIDDDDGAGYISGKKPHNEHSYSRVHKTHSFPISLANTGKFRYMPFSPAGTPFGFTDRRYLTMNEVGYVSTVKNSEQYSITVSFFDVGRFREYHFEDLFGYDLCFLNEKGTLFGQSKTGQIQYRPHDSIHSNWTKIIPLQAGERITSVAATPVRVIVGTSLGYFRSFNQFGVPFAVEKTSPIVALTAQNYRVFSVHYSQFHGLSYSLSELGTSSKRYYKRECPLPMSLPNINSDMKKDANLDYYNFNPMGIKSLFFSSYGDPCIFGSDNTLLLLSKWRSPEESKWLPILDSNMEIWKMSGGKETTDIHVWPLALAYDTLNCILVKGKHIWPEFPLPLPSEMEIRMPVFVKSKLLEENKAILNKKNEIGADTEAEEGEEDKEIQIPVSMAAEEEYLRSKVLSELLTDTLENDGEMYGNENEVLAALNGAYDKALLRLFASACSDQNVEKALSLAHELKQDRALTAAVKESERAELPSLVKKINNIREARYEQQLK
association with CMG helicase (in words) [4]: unable to interact with the CMG helicase

B2: Ctf4-4E 471–927 (domain or fragment, budding yeast, UniProt Q01454 471-927, looked up)
chain: TGKFRYMPFSPAGTPFGFTDRRYLTMNEVGYVSTVKNSEQYSITVSFFDVGRFREYHFEDLFGYDLCFLNEKGTLFGQSKTGQIQYRPHDSIHSNWTKIIPLQAGERITSVAATPVRVIVGTSLGYFRSFNQFGVPFAVEKTSPIVALTAQNYRVFSVHYSQFHGLSYSLSELGTSSKRYYKRECPLPMSLPNINSDMKKDANLDYYNFNPMGIKSLFFSSYGDPCIFGSDNTLLLLSKWRSPEESKWLPILDSNMEIWKMSGGKETTDIHVWPLALAYDTLNCILVKGKHIWPEFPLPLPSEMEIRMPVFVKSKLLEENKAILNKKNEIGADTEAEEGEEDKEIQIPVSMAAEEEYLRSKVLSELLTDTLENDGEMYGNENEVLAALNGAYDKALERLFESACSDQNVEKALSLAHELKQDRALTEAVKESERAELPSLVKKINNIREARYEQQLK
notes: also called Ctf4CTD 4E mutant protein; source: purified protein
stoichiometry N [5]: 3

B3: Ctf4 471–927 (domain or fragment, budding yeast, UniProt Q01454 471-927, looked up)
chain: TGKFRYMPFSPAGTPFGFTDRRYLTMNEVGYVSTVKNSEQYSITVSFFDVGRFREYHFEDLFGYDLCFLNEKGTLFGQSKTGQIQYRPHDSIHSNWTKIIPLQAGERITSVAATPVRVIVGTSLGYFRSFNQFGVPFAVEKTSPIVALTAQNYRVFSVHYSQFHGLSYSLSELGTSSKRYYKRECPLPMSLPNINSDMKKDANLDYYNFNPMGIKSLFFSSYGDPCIFGSDNTLLLLSKWRSPEESKWLPILDSNMEIWKMSGGKETTDIHVWPLALAYDTLNCILVKGKHIWPEFPLPLPSEMEIRMPVFVKSKLLEENKAILNKKNEIGADTEAEEGEEDKEIQIPVSMAAEEEYLRSKVLSELLTDTLENDGEMYGNENEVLAALNGAYDKALLRLFASACSDQNVEKALSLAHELKQDRALTAAVKISERAELPSLVKKINNIREARYEQQLK
notes: also called Ctf4CTD; source: purified Ctf4CTD protein
stoichiometry N [5]: 3
